Patent US20120258974A1, “USE OF A2B ADENOSINE RECEPTOR ANTAGONISTS FOR TREATING HEART FAILURE AND ARRHYTHMIA IN POST-MYOCARDIAL INFARCTION PATIENTS” (GILEAD SCIENCES, INC., priority 2011, published 2012)
“Also recorded” adds a separate entry of the source.

Tests used:
caspase-1 = test: Caspase-1 activity in heart tissue 72 hours after surgery (Example 4); type: in vivo, mouse; conditions: 4 mg/kg i.p. twice daily from coronary ligation
Description: (§1) Adult out-bred male CD1 mice (8-12 weeks of age) were supplied by Harlan Sprague Dawley (Indianapolis, Ind.). The experiments were conducted under the guidelines of laboratory animals for biomedical research published by National Institutes of Health (No. 85-23, revised 1996). The study protocol was approved by the Virginia Commonwealth University Institutional Animal Care and Use Committee. Experimental AMI was induced by permanent coronary artery ligation in order to induce a large non-reperfused infarct involving approximately 30% of the left ventricle and leading to an ischemic dilated cardiomyopathy (Mezzaroma et al. Proc Natl Acad Sci 2011—in press and Abbate et al. Circulation 2008; 117:2670-83). […]
An additional subset of mice was sacrificed 72 hours after surgery (N=4-6 per treatment group). […] The tissue activity of caspase-1 was determined by cleavage of a fluorogenic substrate (CaspACE, Promega, Madison, Wis.) (Abbate et al. Circulation 2008; 117:2670-83). […] Fluorescence was measured after 60 minutes and was expressed as arbitrary fluorescence units produced by one microgram of sample per minute (fluorescence/μg/min) and calculated as fold change compared to the caspase-1 activity in homogenates of the hearts of sham-operated mice.

[1] = system: CD45 expression (leukocytes) in the heart; test: Inflammatory infiltrate: CD45 expression in the heart by Western blot (Example 4); type: in vivo, mouse; conditions: 72 hours after AMI; 4 mg/kg i.p. twice daily
Description: as §1, with “117:2670-83). Briefly, mice were orotracheally intubated under anesthesia (pentobarbital 50 to 70 mg/kg), placed in the right lateral decubitus position, then subjected to a left thoracotomy, pericardiectomy, and ligation of the proximal left coronary artery. The chest was closed and the animals were allowed to recover.” for “117:2670-83).”
In order to quantify the inflammatory infiltrate in the heart during AMI, this example measured CD45 expression (a marker for leukocytes) in the heart using Western Blot. […] The band intensity was determined by densitometric analysis using the Scion Image software and the results were expressed as percentage increase in intensity compared to the control sham samples.

[2] = system: CD1 mice with experimental AMI (permanent coronary artery ligation); test: Survival after coronary artery ligation surgery (Example 4); type: in vivo, mouse; conditions: P=0.14; vehicle 50%
Description: as §1, with “117:2670-83). Briefly, mice were orotracheally intubated under anesthesia (pentobarbital 50 to 70 mg/kg), placed in the right lateral decubitus position, then subjected to a left thoracotomy, pericardiectomy, and ligation of the proximal left coronary artery. The chest was closed and the animals were allowed to recover.” for “117:2670-83).”
Differences between the groups were analyzed using the one-way ANOVA followed by Bonferroni test. Changes in repeated measures of echocardiographic data were analyzed using the random effects ANOVA for repeated-measures to determine the main effect of time, group, and time-by-group interaction. […]

[3] = system: rats with MI (25 minutes coronary occlusion followed by reperfusion); test: VT inducibility in rat model of post-MI remodeling (Example 6); type: in vivo; conditions: 5 weeks post-MI; total N 11
Description: (§2) The effects of Compound A in a rat model of post-MI remodeling and VT were determined. MI was caused by 25 minutes occlusion at the left anterior descending coronary ligation followed by reperfusion. One week later, rats were administered either vehicle or Compound A (100 mg/kg) once daily by oral gavage. Serial echocardiograms (ECHOs) to measure LV ejection fraction (LVEF), stroke volume and LV end systolic volume (LVESV) were obtained at baseline, 1 week and 5 week post-MI. Electrophysiological studies, optical mapping, histology and biomarker analysis were conducted at 5 week post-MI.
Ventricular tachycardia (VT) is a common cause of mortality in post-MI patients, even with current coronary revascularization treatment. In this rat model of post-MI remodeling, VT was consistently inducible in more than half of the animals. Thus, the effect of Compound A in VT inducibility was determined at 5 weeks post-MI.

[4] = system: rats with MI (25 minutes coronary occlusion followed by reperfusion); test: Conduction velocities in LV myocardium, optical mapping, rat post-MI model (Example 6); type: in vivo; conditions: 5 week post-MI
Description: as §2
Abnormal electrical impulse conduction in the infarct border zone (IBZ) is important in the pathogenesis of post-MI arrhythmias. As shown in the conduction vector maps (FIG. 13A-B), the vehicle control group has much slower conduction velocity than the Compound A treated animals. To quantify the impact of Compound A on conduction properties, conduction velocities (CVs) were measured for infarct, border, and normal zones of LV myocardium. CVs in normal zones were fastest among all zones and were similar between placebo and Compound A groups (FIG. 14A). […] Finally, CVs in IBZs of both groups were in between those of non-infarct and infarct zones.

[5] = system: human cardiac myocytes (HCM); test: NECA-induced IL-6 release from human cardiac myocytes (Example 7); type: cell-based; conditions: NECA in combination with antagonist
Description: This example uses human cardiac myocytes to test two other A2B adenosine receptor antagonists on their effect on NECA-induced IL-6 release.
Human cardiac myocytes (HCM) were treated with NECA alone, or in combination with Compound A, Compound B (N-[5-(1-cyclopropyl-2,6-dioxo-3-propyl-2,3,6,7-tetrahydro-1H-purin-8-yl)-pyridin-2-yl]-N-ethyl-nicotinamide, also known as ATL-801) or Compound C (2-(4-benzyloxy-phenyl)-N-[5-(2,6-dioxo-1,3-dipropyl-2,3,6,7-tetrahydro-1H-purin-8-yl)-1-methyl-1H-pyrazol-3-yl]-acetamide).

CCCn1c(=O)c2[nH]c(-c3cnn(Cc4cccc(C(F)(F)F)c4)c3)nc2n(CC)c1=O [Compound A, 3-ethyl-1-propyl-8-(1-(3-(trifluoromethyl)benzyl)-1H-pyrazol-4-yl)-1H-purine-2,6(3H,7H)-dione]
caspase-1 activation / activity in the heart during AMI (caspase-1): prevented; also recorded: nearly complete reduction | intensity of the leukocyte (CD45+) infiltrate, CD45 expression at Western blot [1]: significantly reduced | mice alive at 28 days after coronary artery ligation surgery [2]: 75% | No VT (number of animals) [3]: 10 | VT (number of animals) [3]: 1 | conduction velocities in normal zones ([4]; vs placebo): similar | conduction velocities in IBZs ([4]; vs placebo control): significantly faster | conduction velocities in infarct zones ([4]; vs placebo control): significantly improved | effect of NECA on HCM (IL-6 release) [5]: completely abolished
